What all share (type): cell-based
Assay [1] relates to Leptosphaeria nodorum. Description: Microtest: activity against wheat leaf spots caused by Leptosphaeria nodorum (LEPTNO). Particulars: 7 days after inoculation. The protocol:
(§1) The active compounds were formulated separately as a stock solution having a concentration of 10000 ppm in dimethyl sulfoxide.
The stock solutions were mixed according to the ratio, pipetted onto a micro titer plate (MTP) and diluted with water to the stated concentrations. A spore suspension of Leptosphaeria nodorum in an aqueous biomalt or yeast-bactopeptone-glycerine or DOB solution was then added. The plates were placed in a water vapor-saturated chamber at a temperature of 18° C. Using an absorption photometer, the MTPs were measured at 405 nm 7 days after the inoculation.
(§2) The measured parameters were compared to the growth of the active compound-free control variant (100%) and the fungus-free blank value to determine the relative growth in % of the pathogens in the respective active compounds.
(§3) These percentages were converted into efficacies.
(§4) An efficacy of 0 means that the growth level of the pathogens corresponds to that of the untreated control; an efficacy of 100 means that the pathogens were not growing.
(§5) The expected efficacies of active compound mixtures were determined using Colby's formula [R. S. Colby, “Calculating synergistic and antagonistic responses of herbicide combinations”, Weeds 15, 20-22 (1967)] and compared with the observed efficacies.

For assay [2], the system named is Microdochium nivale. Description: Microtest: activity against Microdochium nivale (MONGNI). Particulars: 7 days after inoculation. As for the experimental part:
as §1
The stock solutions were mixed according to the ratio, pipetted onto a micro titer plate (MTP) and diluted with water to the stated concentrations. A spore suspension of Microdochium nivale in an aqueous biomalt or yeast-bactopeptone-glycerine or DOB solution was then added. The plates were placed in a water vapor-saturated chamber at a temperature of 18° C. Using an absorption photometer, the MTPs were measured at 405 nm 7 days after the inoculation.
as §2, §3, §4, §5

The subject of assay [3] is Qoi resistant isolate of Pyrenophora teres. Description: Microtiter test: activity against net blotch Pyrenophora teres on barley (PYRNTE), Qoi resistant isolate. Particulars: 0.063 ppm, 7 days after inoculation. The protocol:
as §1
The stock solutions were mixed according to the ratio, pipetted onto a micro titer plate (MTP) and diluted with water to the stated concentrations. A spore suspension of a Qoi resistant isolate of Pyrenophora teres in an aqueous biomalt or yeast-bactopeptone-glycerine or DOB solution was then added. The plates were placed in a water vapor-saturated chamber at a temperature of 18° C. Using an absorption photometer, the MTPs were measured at 405 nm 7 days after the inoculation.
as §2, §3, §4, §5

Assay [4] deals with Rhynchosporium secalis. Description: Microtest: activity against Rhynchosporium secalis (RHYNSE). The note with it: 7 days after inoculation. The protocol:
as §1
The stock solutions were mixed according to the ratio, pipetted onto a micro titer plate (MTP) and diluted with water to the stated concentrations. A spore suspension of Rhynchosporium secalis in an aqueous biomalt or yeast-bactopeptone-glycerine or DOB solution was then added. The plates were placed in a water vapor-saturated chamber at a temperature of 18° C. Using an absorption photometer, the MTPs were measured at 405 nm 7 days after the inoculation.
as §2, §3, §4, §5

Assay [5] relates to Qoi resistant isolate of Septoria tritici. Description: Microtest: activity against leaf blotch on wheat caused by Septoria tritici (SEPTTR), Qoi resistant isolate. Particulars: 7 days after inoculation. The protocol: as §1
The stock solutions were mixed according to the ratio, pipetted onto a micro titer plate (MTP) and diluted with water to the stated concentrations. A spore suspension of a Qoi resistant isolate of Septoria tritici in an aqueous biomalt or yeast-bactopeptone-glycerine or DOB solution was then added. The plates were placed in a water vapor-saturated chamber at a temperature of 18° C. Using an absorption photometer, the MTPs were measured at 405 nm 7 days after the inoculation.
as §2, §3, §4, §5

Molecules are shown by their SMILES.

In the case of `COc1ccnc(C(=O)N[C@@H](C)C(=O)O[C@@H](C)C(c2ccc(F)cc2)c2ccc(F)cc2)c1OC(C)=O` [Florylpicoxamid, [(1S)-2,2-bis(4-fluorophenyl)-1-methyl-ethyl] (2S)-2-[(3-acetoxy-4-methoxy-pyridine-2-carbonyl)amino]propanoate], the Observed efficacy in assay [1] (0.004 ppm) came out at 13; in assay [2] (0.004 ppm) it was 3; in assay [2] (0.016 ppm), 18; in assay [2] (0.063 ppm), 44; in assay [3], 9; in assay [4] (0.063 ppm), 55. In addition, the Observed efficacy is given as 0 in assay [5] (0.016 ppm) and 12 in assay [5] (0.063 ppm).
As for `Cc1cccc(-n2nnn(C)c2=O)c1COc1ccn(-c2ccc(Cl)cc2)n1` [Metyltetraprol, 1-[2-[[1-(4-chlorophenyl)pyrazol-3-yl]oxymethyl]-3-methyl-phenyl]-4-methyl-tetrazol-5-one], the Observed efficacy was determined as 49 in assay [1] (0.016 ppm); 1 in assay [2] (0.004 ppm); 32 in assay [2] (0.016 ppm); 11 in assay [3]; 14 in assay [4] (0.016 ppm); 1 in assay [5] (0.004 ppm). In addition, the Observed efficacy in assay [5] (0.016 ppm) is given as 0; in assay [5] (0.063 ppm), 1.
